# Results: ChEMBL document CHEMBL1201862, “PubChem BioAssay data set” (2004)
#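 Exposure lasted 48 hours, with cells grown in 96-well plates and compounds tested at five concentrations. GI50: concentration for 50% inhibition of growth.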 Calls of active or inactive are those of the source. Rule as the data show it: active = GI50 up to about 1.1 µM and inactive = higher.
# Experiments:
# Assay in all cases: NCI anticancer screen, dose series, 48 h
# [1] = tested on: HCT-116
# [2] = tested on: HOP-92
# [3] = tested on: HT-29
# [4] = tested on: RPMI-8226
# [5] = tested on: NCI-H522
# [6] = tested on: ACHN
# [7] = tested on: EKVX
# [8] = tested on: CAKI-1
# [9] = tested on: SNB-78
# [10] = tested on: Malme-3M
# [11] = tested on: A549
# [12] = tested on: M14
# [13] = tested on: SF-268
# [14] = tested on: SW-620
# [15] = tested on: UACC-257
# [16] = tested on: MOLT-4
# [17] = tested on: NCI-H23
# [18] = tested on: NCI-H460
# [19] = tested on: OVCAR-3
# [20] = tested on: HL-60
# [21] = tested on: SK-OV-3
# [22] = tested on: SNB-19
# [23] = tested on: U-251
# [24] = tested on: SK-MEL-2
# [25] = tested on: SK-MEL-28
# [26] = tested on: 786-0
# [27] = tested on: SN12C
# [28] = tested on: DLD-1
# [29] = tested on: UACC-62
# [30] = tested on: IGROV-1
# [31] = tested on: CCRF-CEM
# [32] = tested on: A498
# [33] = tested on: KM12
# [34] = tested on: OVCAR-8
# [35] = tested on: KM-20L2
# [36] = tested on: M19-MEL
# [37] = tested on: K562
# [38] = tested on: LOX IMVI
# [39] = tested on: COLO 205
# [40] = tested on: SF-539
# [41] = tested on: OVCAR-5
# [42] = tested on: DMS-114
# [43] = tested on: LXFL 529
# [44] = tested on: UO-31
# [45] = tested on: SK-MEL-5
# [46] = tested on: HOP-62
# [47] = tested on: HCC 2998
# [48] = tested on: OVCAR-4
# [49] = tested on: TK-10
# [50] = tested on: RXF 393
# [51] = tested on: SF-295
# [52] = tested on: XF498
# [53] = tested on: HCT-15
# [54] = tested on: NCI-H226
# [55] = tested on: SR
# [56] = tested on: HOP-18
# [57] = tested on: SNB-75
# [58] = tested on: DMS-273
smiles,measurement,setting,value
CC1=NN(C(=O)c2ccc(Cl)cc2)C(=O)/C1=C/c1ccco1,GI50,[1],> 100 µM (inactive)
same,GI50,[2],> 100 µM (inactive)
same,GI50,[3],> 100 µM (inactive)
same,GI50,[4],> 100 µM (inactive)
same,GI50,[5],> 100 µM (inactive)
same,GI50,[6],> 100 µM (inactive)
same,GI50,[7],> 100 µM (inactive)
same,GI50,[8],> 100 µM (inactive)
same,GI50,[9],46.1 µM (inactive)
same,GI50,[10],> 100 µM (inactive)
same,GI50,[11],> 100 µM (inactive)
same,GI50,[12],> 100 µM (inactive)
same,GI50,[13],> 100 µM (inactive)
same,GI50,[14],> 100 µM (inactive)
same,GI50,[15],> 100 µM (inactive)
same,GI50,[16],> 100 µM (inactive)
same,GI50,[17],> 100 µM (inactive)
same,GI50,[18],> 100 µM (inactive)
same,GI50,[19],> 100 µM (inactive)
same,GI50,[20],> 100 µM (inactive)
same,GI50,[21],> 100 µM (inactive)
same,GI50,[22],> 100 µM (inactive)
same,GI50,[23],> 100 µM (inactive)
same,GI50,[24],> 100 µM (inactive)
same,GI50,[25],> 100 µM (inactive)
same,GI50,[26],> 100 µM (inactive)
same,GI50,[27],> 100 µM (inactive)
same,GI50,[28],> 100 µM (inactive)
same,GI50,[29],> 100 µM (inactive)
same,GI50,[30],> 100 µM (inactive)
same,GI50,[31],> 100 µM (inactive)
same,GI50,[32],> 100 µM (inactive)
same,GI50,[33],> 100 µM (inactive)
same,GI50,[34],> 100 µM (inactive)
same,GI50,[35],> 100 µM (inactive)
same,GI50,[36],> 100 µM (inactive)
same,GI50,[37],> 100 µM (inactive)
same,GI50,[38],> 100 µM (inactive)
same,GI50,[39],> 100 µM (inactive)
same,GI50,[40],> 100 µM (inactive)
same,GI50,[41],> 100 µM (inactive)
same,GI50,[42],> 100 µM (inactive)
same,GI50,[43],> 100 µM (inactive)
same,GI50,[44],> 100 µM (inactive)
same,GI50,[45],> 100 µM (inactive)
same,GI50,[46],> 100 µM (inactive)
same,GI50,[47],> 100 µM (inactive)
same,GI50,[48],> 100 µM (inactive)
same,GI50,[49],> 100 µM (inactive)
same,GI50,[50],> 100 µM (inactive)
same,GI50,[51],> 100 µM (inactive)
same,GI50,[52],> 100 µM (inactive)
same,GI50,[53],> 100 µM
COc1ccc(C2CCC(Cl)(OC)CC2C=O)cc1 (configuration not stated),GI50,[1],52 µM (inactive)
same,GI50,[2],29.9 µM (inactive)
same,GI50,[3],50.7 µM (inactive)
same,GI50,[4],45.7 µM (inactive)
same,GI50,[5],64.7 µM (inactive)
same,GI50,[6],95.9 µM (inactive)
same,GI50,[54],> 100 µM (inactive)
same,GI50,[7],> 100 µM (inactive)
same,GI50,[8],39.8 µM (inactive)
same,GI50,[10],44.9 µM (inactive)
same,GI50,[11],61.5 µM (inactive)
same,GI50,[55],41.1 µM (inactive)
same,GI50,[12],40.1 µM (inactive)
same,GI50,[13],21.9 µM (inactive)
same,GI50,[14],54.3 µM (inactive)
same,GI50,[15],> 100 µM (inactive)
same,GI50,[16],47.5 µM (inactive)
same,GI50,[17],34.6 µM (inactive)
same,GI50,[18],> 100 µM (inactive)
same,GI50,[19],94.2 µM (inactive)
same,GI50,[20],69.5 µM (inactive)
same,GI50,[56],68.9 µM (inactive)
same,GI50,[21],> 100 µM (inactive)
same,GI50,[22],73.6 µM (inactive)
same,GI50,[23],43.9 µM (inactive)
same,GI50,[24],21.9 µM (inactive)
same,GI50,[25],21 µM (inactive)
same,GI50,[26],45 µM (inactive)
same,GI50,[27],> 100 µM (inactive)
same,GI50,[28],91.4 µM (inactive)
same,GI50,[29],58.7 µM (inactive)
same,GI50,[30],> 100 µM (inactive)
same,GI50,[31],29.7 µM (inactive)
same,GI50,[57],31.4 µM (inactive)
same,GI50,[32],> 100 µM (inactive)
same,GI50,[58],53.7 µM (inactive)
same,GI50,[33],> 100 µM (inactive)
same,GI50,[34],85.1 µM (inactive)
same,GI50,[35],67.1 µM (inactive)
same,GI50,[36],32.1 µM (inactive)
same,GI50,[37],> 100 µM (inactive)
same,GI50,[38],13.3 µM (inactive)
same,GI50,[39],> 100 µM (inactive)
same,GI50,[40],56.4 µM (inactive)
same,GI50,[41],> 100 µM (inactive)
same,GI50,[42],27.5 µM (inactive)
same,GI50,[43],> 100 µM (inactive)
same,GI50,[44],80.4 µM (inactive)
same,GI50,[45],58.7 µM (inactive)
same,GI50,[46],94 µM (inactive)
same,GI50,[47],> 100 µM (inactive)
same,GI50,[48],> 100 µM (inactive)
same,GI50,[49],> 100 µM (inactive)
same,GI50,[50],0.128 µM (active)
same,GI50,[51],46.1 µM (inactive)
same,GI50,[53],49.4 µM
O=C1CCC2(c3ccc(Cl)cc3)Nc3ncccc3N12 (configuration not stated),GI50,[2],> 100 µM (inactive)
same,GI50,[3],> 100 µM (inactive)
same,GI50,[4],> 100 µM (inactive)
same,GI50,[5],> 100 µM (inactive)
same,GI50,[6],> 100 µM (inactive)
same,GI50,[54],> 100 µM (inactive)
same,GI50,[7],> 100 µM (inactive)
same,GI50,[8],> 100 µM (inactive)
same,GI50,[9],63 µM (inactive)
same,GI50,[10],> 100 µM (inactive)
same,GI50,[11],> 100 µM (inactive)
same,GI50,[12],> 100 µM (inactive)
same,GI50,[13],> 100 µM (inactive)
same,GI50,[14],> 100 µM (inactive)
same,GI50,[15],> 100 µM (inactive)
same,GI50,[16],> 100 µM (inactive)
same,GI50,[17],> 100 µM (inactive)
same,GI50,[18],> 100 µM (inactive)
same,GI50,[19],> 100 µM (inactive)
same,GI50,[20],> 100 µM (inactive)
same,GI50,[21],> 100 µM (inactive)
same,GI50,[23],> 100 µM (inactive)
same,GI50,[24],> 100 µM (inactive)
same,GI50,[25],> 100 µM (inactive)
same,GI50,[26],> 100 µM (inactive)
same,GI50,[27],> 100 µM (inactive)
same,GI50,[28],> 100 µM (inactive)
same,GI50,[29],> 100 µM (inactive)
same,GI50,[30],> 100 µM (inactive)
same,GI50,[31],> 100 µM (inactive)
same,GI50,[57],79.8 µM (inactive)
same,GI50,[32],> 100 µM (inactive)
same,GI50,[33],> 100 µM (inactive)
same,GI50,[34],> 100 µM (inactive)
same,GI50,[35],> 100 µM (inactive)
same,GI50,[36],> 100 µM (inactive)
same,GI50,[37],> 100 µM (inactive)
same,GI50,[38],> 100 µM (inactive)
same,GI50,[39],> 100 µM (inactive)
same,GI50,[40],> 100 µM (inactive)
same,GI50,[41],> 100 µM (inactive)
same,GI50,[42],> 100 µM (inactive)
same,GI50,[43],> 100 µM (inactive)
same,GI50,[44],> 100 µM (inactive)
same,GI50,[45],> 100 µM (inactive)
same,GI50,[46],> 100 µM (inactive)
same,GI50,[47],> 100 µM (inactive)
same,GI50,[48],> 100 µM (inactive)
same,GI50,[49],> 100 µM (inactive)
same,GI50,[50],> 100 µM (inactive)
same,GI50,[51],> 100 µM (inactive)
same,GI50,[52],> 100 µM (inactive)
same,GI50,[53],> 100 µM
